What all share (assay type): biochemical
Test [1] in a line: ABTS·+ decolourisation capacity. Conditions: for ABTS scavenging rate: 0.5mM series, replicate wells; for IC50: mean ± SD, n = 3. How it is done: Fast colourimetric methods were slightly modified for the in vitro assessment of DPPH· scavenging ([19]), ABTS·+ decolourisation capacity ([20]), and total antioxidant capacity of FRAP ([21]). The stock solutions of derivatisation reagents were diluted as follows before measurement: DPPH was diluted with absolute ethanol until the absorbance was 0.8 ± 0.05 at λ = 517 nm. ABTS working solution was prepared with phosphate buffer (0.2 M, pH 7.4) to display absorbance of 0.8 ± 0.05 at λ = 729 nm, based on a previous study ([22]). The FRAP solution was prepared according to the instructions of the FRAP kit. Absorbances were measured using an automatic microplate reader (Molecular Group Ltd., USA), and all analyses were performed using 96-well plates. All measurements were performed in triplicate, and Trolox was used as a positive control.
For ABTS·+ decolourisation capacity, 100 μl of ABTS working solution was mixed with 200 μl of sample solution, and the absorbance was recorded after 10 min at 729 nm. Phosphate buffer (0.2 M, pH 7.4) was used as a negative control.
DPPH· and ABTS·+ radical scavenging activities of the tested sample were both calculated using the following formula:
% inhibition = (A control − A sample)/A control × 100
Where A control and A sample represent the absorbance of the control and test samples, respectively. The IC50 was calculated graphically from the dose-inhibition curves.

Test [2] deals with T1, COX-2 (Homo sapiens, UniProt P35354).
T1 construct: purchased Beyotime S0168
T1 sequence (P35354 18-604): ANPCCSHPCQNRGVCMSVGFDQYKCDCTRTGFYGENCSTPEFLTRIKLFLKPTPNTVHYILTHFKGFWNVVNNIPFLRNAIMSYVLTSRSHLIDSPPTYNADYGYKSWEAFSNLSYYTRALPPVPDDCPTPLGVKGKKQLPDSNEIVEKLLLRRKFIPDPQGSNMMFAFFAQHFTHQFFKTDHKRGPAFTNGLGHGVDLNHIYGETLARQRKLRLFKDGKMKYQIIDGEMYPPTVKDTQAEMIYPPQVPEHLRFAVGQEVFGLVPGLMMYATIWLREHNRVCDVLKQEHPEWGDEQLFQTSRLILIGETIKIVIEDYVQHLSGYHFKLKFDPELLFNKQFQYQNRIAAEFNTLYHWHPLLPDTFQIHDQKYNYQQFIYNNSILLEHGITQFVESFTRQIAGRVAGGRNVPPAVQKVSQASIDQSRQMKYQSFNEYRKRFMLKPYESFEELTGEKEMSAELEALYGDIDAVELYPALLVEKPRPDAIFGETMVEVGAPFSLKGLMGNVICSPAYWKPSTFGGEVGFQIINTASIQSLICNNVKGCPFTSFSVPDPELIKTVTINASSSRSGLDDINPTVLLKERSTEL
The test can be described thus: Anti-COX-2 assay (COX-2 Inhibitor Screening Kit).

Test [3] in a line: DPPH· scavenging.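 Note: colourimetric DPPH radical scavenging in 96-well plates, absorbance read-out, percent inhibition relative to ethanol control absorbance, IC50 derived graphically from dose-inhibition curves.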 Particulars: mean ± SD, n = 3.
A short description of test [4]: FRAP total antioxidant capacity.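 Note: colourimetric FRAP kit assay read as absorbance in 96-well plates, values as mM FeSO4 via standard curve, EC1 being sample concentration matching 1.0 mmol/L FeSO4, Trolox positive control.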 Particulars: lower part of sheet (compound series).
Test [5] is described as follows: Fluorescent AGEs formation in a BSA-fructose/glucose system. Conditions: mean ± SD, n = 3; read-out: BSA-glycation IC50. How it is done:
Glycated protein was prepared in vitro by incubating BSA in the presence of D-glucose (GLC) and D-fructose (FRC). The DOF extract and specific standards were dissolved in DMSO:water (1:4). […] The assay was performed in triplicate, and AG was used as a positive control. The percentage inhibition of fluorescent AGE formation was calculated using the following equation: […] Where IF sample is fluorescence intensity in the presence of samples and BSA, IF sample control is fluorescence intensity in the presence of samples without BSA, IF control is fluorescence intensity without samples, and IF blank control is fluorescence intensity without samples and BSA.

Where [6] appears, read: mean ± SD, n = 3, nd, not detected, read-out: COX-2 IC50.
Setting [7] is: supplement sheet COX, read-out: COX-2 IC50, single replicate.

Where “and” joins values, the source holds several entries; their conditions need not be identical. Equal values may be shown once. Read-outs that look alike come from different tables or passages of the source.

From paper PMC10064984, “Anti-cyclooxygenase, anti-glycation, and anti-skin aging effect of Dendrobium officinale flowers’ aqueous extract and its phytochemical validation in aging” (Frontiers in Immunology, 2023) come the findings set out here.

For the molecule `O=c1cc(-c2ccc(O)c(O)c2)oc2c(C3OCC(O)C(O)C3O)c(O)c(C3OC(CO)C(O)C(O)C3O)c(O)c12` [compound 15, Luteolin-6-C-β-D-glucoside-8-C-β-D-xyloside], the ABTS scavenging rate in test [1] (concentration 7.8125 (unit not given), listed as T19) was 33.84% and 32.82% and 31.57%; in test [1] (concentration 15.625 (unit not given), listed as T19), 51.02% and 51.43% and 45.77%; in test [1] (concentration 31.25 (unit not given), listed as T19) it was 80.79% and 81.13% and 77.35%; in test [1] (concentration 62.5 (unit not given), listed as T19), 99.45% and 99.39% and 98.61%; in test [1] (concentration 125 (unit not given), listed as T19) it was 99.58% and 99.48% and 99.50%; in test [1] (concentration 250 (unit not given), listed as T19), 99.61% and 99.60% and 99.48%. Moreover, the ABTS scavenging rate in test [1] (concentration 500 (unit not given), listed as T19) was 99.69% (2×) and 99.56%. Moreover, the IC50 in test [1] was 13.8 ± 0.82 µM; in test [2] (setting [6]) it was 13.9 ± 2.4 µM; in test [2] (setting [7]), 11.2 µM and 15.8 µM and 14.8 µM; in test [3] it was 145 ± 51.4 µM; in test [5], 294 ± 13.3 µM. Moreover, the “COX-2 inhibition (in words)” value in test [2] was “great COX-2 inhibition”. The molecule further gave an inhibition at 3.125 µM in test [2] (3.125 μM, single replicates) of 14.6%. Also, the COX-2 inhibition in test [2] (3.125 μM, single replicates, listed as T19, 3.125 µM) was 14.16% and 11.51%; in test [2] (6.25 μM, single replicates, listed as T19, 6.25 µM), 23.77% and 25.81%; in test [2] (12.5 μM, single replicates, listed as T19, 12.5 µM) it was 53.05% and 54.30%; in test [2] (25 μM, single replicates, listed as T19, 25 µM), 68.96% and 71.63%; in test [2] (50 μM, single replicates, listed as T19, 50 µM), 74.58% and 74.45%; in test [2] (100 μM, single replicates, listed as T19, 100 µM), 75.76% and 77.02%. The COX-2 inhibition in test [2] (200 μM, single replicates, listed as T19, 200 µM) is 78.95% and 81.08%. The same molecule returned an inhibition at 6.25 µM in test [2] (6.25 μM, single replicates) of 39.3%. Besides, the inhibition at 12.5 µM in test [2] (12.5 μM, single replicates) stood at 60.5%. Besides, the inhibition at 25 µM in test [2] (25 μM, single replicates) worked out at 71.9%. This molecule also registered an inhibition at 50 µM in test [2] (50 μM, single replicates) of 75.8%. In test [2] (100 μM, single replicates), the inhibition at 100 µM came out at 83.1%. In test [2] (200 μM, single replicates), this molecule registered an inhibition at 200 µM of 80.8%. For the same molecule, the “FRAP EC1” value in test [4] turned out to be 1100.3 ± 138.4 µM.
Take `O=c1cc(-c2ccc(O)cc2)oc2c(C3OCC(O)C(O)C3O)c(O)c(C3OC(CO)C(O)C(O)C3O)c(O)c12` (stereo not shown) [compound 17, Schaftoside]: the figures for the IC50 in test [1], in test [3] and in test [5] were 75.6 ± 12.1 µM, > 5000 µM and 250 ± 4.16 µM, respectively. The “COX-2 inhibition (in words)” value in test [2] is “no inhibitory effects”. Moreover, the COX-2 inhibition in test [2] (31.25 μM, single replicates, listed as T4, 31.25 µM) was -26.58% and -23.72% and 26.46%; in test [2] (62.5 μM, single replicates, listed as T4, 62.5 µM) it was -5.78% and -8.50% and -9.30%; in test [2] (125 μM, single replicates, listed as T4, 125 µM) it was -21.60% and 2.72%; in test [2] (250 μM, single replicates, listed as T4, 250 µM), -34.33% and -33.14% and 20.94%; in test [2] (500 μM, single replicates, listed as T4, 500 µM), -36.70% and -25.03% and -14.74%; in test [2] (1000 μM, single replicates, listed as T4, 1000 µM), -40.79% and -25.81% and -34.65%. In test [2] (2000 μM (2mM), single replicates, listed as T4), the COX-2 inhibition is -30.80% and -21.24% and -15.63%. Also, the “FRAP EC1” value in test [4] was >5000 µM.
For `O=c1cc(-c2ccc(O)c(O)c2)oc2cc(O)c(C3OC(CO)C(O)C(O)C3O)c(O)c12` [compound 18, Luteolin-6-C-β-D-glucoside], the ABTS scavenging rate was 55.37% and 55.07% and 56.44% in test [1] (concentration 7.8125 (unit not given), listed as T17); 79.33% and 79.42% (2×) in test [1] (concentration 15.625 (unit not given), listed as T17); 99.48% (2×) and 99.43% in test [1] (concentration 31.25 (unit not given), listed as T17); 99.27% and 99.11% and 99.08% in test [1] (concentration 62.5 (unit not given), listed as T17); 99.06% and 98.78% and 98.90% in test [1] (concentration 125 (unit not given), listed as T17); 98.95% and 99.14% and 99.11% in test [1] (concentration 250 (unit not given), listed as T17). The ABTS scavenging rate in test [1] (concentration 500 (unit not given), listed as T17) was 99.30% and 99.22% and 99.17%. The IC50 in test [1] is 7.1 ± 0.1 µM; in test [2] (setting [6]), 7.9 ± 2.4 µM; in test [2] (setting [7]) it was 10 µM and 8.56 µM and 5.24 µM; in test [3], 102 ± 6.2 µM; in test [5], 317 ± 15.6 µM. For the same molecule, the “COX-2 inhibition (in words)” value in test [2] is given as “great COX-2 inhibition”. The inhibition at 3.125 µM in test [2] (3.125 μM, single replicates) was found to be 16.9%. In addition, the COX-2 inhibition is 26.59% and 29.93% in test [2] (3.125 μM, single replicates, listed as T17, 3.125 µM); 36.73% and 36.77% and 59.48% in test [2] (6.25 μM, single replicates, listed as T17, 6.25 µM); 69.47% and 74.84% in test [2] (12.5 μM, single replicates, listed as T17, 12.5 µM); 75.14% and 79.85% in test [2] (25 μM, single replicates, listed as T17, 25 µM); 79.38% and 83.25% in test [2] (50 μM, single replicates, listed as T17, 50 µM); 81.46% and 83.62% in test [2] (100 μM, single replicates, listed as T17, 100 µM). Moreover, the COX-2 inhibition in test [2] (200 μM, single replicates, listed as T17, 200 µM) was 89.90% and 90.15%. Also, testing at 12.5 µM in test [2] (12.5 μM, single replicates) gave an inhibition of 65.1%. Moreover, testing at 25 µM in test [2] (25 μM, single replicates) gave an inhibition of 74.8%. In addition, the inhibition at 50 µM in test [2] (50 μM, single replicates) stood at 78.4%. In test [2] (100 μM, single replicates), this molecule yielded an inhibition at 100 µM of 84.8%. In addition, in test [2] (200 μM, single replicates), the inhibition at 200 µM came out at 90.6%. In addition, the “FRAP EC1” value in test [4] amounted to 506.6 ± 78.3 µM.
